Experiments:
[1] = system: O-linked N-acetylglucosamine (O-GlcNAc) in rituximab; assay: Degree of binding of O-GlcNAc in rituximab (RL2 Western blotting, metabolic labeling); assay type: cell-based
Procedure: Based on the total protein amount, the isolated rituximab was subjected to electrophoresis on acrylamide gel so that proteins were separated by size. Then, the proteins were transferred to a nitrocellulose membrane. Portions other than the proteins electrically transferred to the nitrocellulose membrane were blocked with TBS-T containing 5% non-fat milk and 0.1% Tween 20 at room temperature for 1 hour. Incubation with O-linked N-acetylglucosamine (O-GlcNAc)-specific antibody (RL2-HRP) was performed at room temperature for 1 hour, and then washing with TBS-T was performed three times for 10 minutes each. The ECL solution was used to sensitize an x-ray film (FIG. 6A).
The ECL solution was used to sensitize an x-ray film (FIG. 6B).
The cell line was cultured for 72 hours in a serum-free RPMI medium treated with Thiamet-G (TMG) at 50 μM, and then harvested. Then, a cell lysate was prepared. […] Then, Coomassie blue staining was performed. The results are illustrated in FIGS. 7A-7B. Here, however, as a control, Mabthera (Mab) (Roche) was used.
To further identify differences in degree of binding of O-GlcNAc in antibody, a comparison of O-GlcNAc binding amount using metabolic labeling wax performed. […] The cell line was treated with Thiamet-G at 50 μM and Ac4GlcNAz (azido sugar) at 50 μM and cultured for 4 days. […] O-GlcNAc in the rituximab was subjected to metabolic labeling.

[2] = system: CHO-K1 cells; assay: Rituximab production by transduced CHO-K1 cells after addition of reagent (purified antibody amount, Western blotting of medium); assay type: cell-based, Chinese hamster; settings: for production of the heavy and light chains of rituximab over time: medium at 24, 48, 72 hours
Procedure: Antibody Production: CHO-K1 cells were inoculated into a 12-well plate at 1×10^5 cells/well and then cultured. The next day, the culture medium having lentivirus-containing cells and a fresh culture medium were mixed at a ratio of 1:1, and treatment with this mixture was performed. Culture was performed for 24 hours. The culture medium was replaced with a new medium, and then treatment with puromycin and blasticidin at 10 μg/ml each was performed for selection. When 72 hours elapsed, the remaining cells were proliferated to obtain sufficient cells. For the cells thus obtained, the culture medium was replaced with a serum-free medium (EX-CELL CD CHO Serum-Free Medium for CHO Cells, Chemically Defined, Sigma, 14360C), and then treatment with Thiamet-G (Sigma Cat #SML0244) reagent at a concentration of 30 μM was performed. The cells were cultured in a CO2 incubator at 30° C. for 2 weeks. Then, the culture medium was collected and centrifuged at 1000 rcf for 3 minutes at 4° C. Only the supernatant was transferred separately into a clean tube, and the cells mixed with the supernatant were removed. The resultant was stored at 4° C.
Antibody Purification: the antibody-containing culture medium was treated with protein A agarose beads (Pierce Protein A Agarose, Therm Fisher Scientific, QE218104), and the reaction was allowed to proceed at 4° C. for 4 hours. The supernatant was removed by centrifugation, and washing with a washing buffer (0.1 M NaPO4, 0.15 M NaCl, pH 7.4) was performed five times. For the beads from which the supernatant was removed, elution was again performed 5 times with an elution buffer (0.2 M glycine, pH 3) in the same bead volume. […] Then, the total protein was quantified by the Bradford method.
To identify changes in protein amount of heavy and light chains of antibody caused by treatment with Thiamet-G, the following experiment was performed to check changes in antibody production over time after addition of Thiamet-G. The cell culture medium was collected when 24 hours, 48 hours, and 72 hours elapsed after addition of Thiamet-G at a concentration of 30 μM. […] The ECL solution was used to sensitize an x-ray film (FIG. 2), and production of the heavy and light chains at each time point was analyzed (FIG. 3).
During the antibody production process, the reagent OSMI-1 (Sigma #SML1621), which corresponds to an OGT inhibitor, at a concentration of 30 μM was added in place of Thiamet-G. Then, in the same manner as described above, the cell culture medium was collected when 24 hours, 48 hours, and 72 hours elapsed, and the production of the antibody and its heavy chain was analyzed through Western blotting (FIGS. 4-5). […]

[3] = system: CHO cell line expressing rituximab; assay: Antibody production after Thiamet-G, cell line expressing rituximab; assay type: cell-based, Chinese hamster; settings: 50 μM, 30° C.
Procedure: (§1) The next day, treatment with Thiamet-G at 50 μM in 3 ml of CHO medium was performed, and culture was performed at 30° C. for 2 weeks. Then, the medium was harvested. The same volume of medium was subjected to electrophoresis so that proteins were separated by size, and then the proteins were transferred to a PVDF membrane. Portions other than the proteins electrically transferred to the membrane were blocked with TBS-T containing 5% non-fat milk and 0.1% Tween 20 at room temperature for 1 hour. […] The ECL solution was used to sensitize an x-ray film (FIG. 19), and changes in production depending on treatment with Thiamet-G were measured for each antibody (FIG. 20).
as §1, with “7 days.” for “2 weeks.”, “(FIGS. 22-23).” for “(FIG. 19), and changes in production depending on treatment with Thiamet-G were measured for each antibody (FIG. 20).”

[4] = system: CHO cell line expressing pembrolizumab; assay: Antibody production after Thiamet-G, cell line expressing pembrolizumab; assay type: cell-based, Chinese hamster; settings: 50 μM, 30° C.
Procedure: as §1
as §1, with “7 days.” for “2 weeks.”, “(FIGS. 22-23).” for “(FIG. 19), and changes in production depending on treatment with Thiamet-G were measured for each antibody (FIG. 20).”

[5] = system: CHO cell line expressing nivolumab; assay: Antibody production after Thiamet-G, cell line expressing nivolumab; assay type: cell-based, Chinese hamster; settings: 50 μM, 30° C.
Procedure: as §1
as §1, with “7 days.” for “2 weeks.”, “(FIGS. 22-23).” for “(FIG. 19), and changes in production depending on treatment with Thiamet-G were measured for each antibody (FIG. 20).”

[6] = system: O-linked N-acetylgalactosamine (O-GalNAc) in rituximab; assay: Degree of binding of O-GalNAc in rituximab (Jacalin lectin blotting, LC-MS/MS); assay type: cell-based
Procedure: The nitrocellulose membrane was blocked with PBS-T (Tween 0.5%) for 1 hour. Then, an O-GalNAc-binding lectin (biotinylated-Jacalin) was added thereto, and incubation was performed at room temperature for 1 hour. Washing with PBS-T was performed three times for 10 minutes each, and then incubation with streptavidin-HRP was performed at room temperature for 30 minutes. Washing with PBS-T was performed three times for 10 minutes each, and then the ECL solution was used to sensitize an x-ray film. […] Then, washing with TBS-T was performed three times for 10 minutes each. The ECL solution was used to sensitize an x-ray film (FIGS. 17A-17B).

[7] = system: Ramos cells; assay: Complement-dependent cytotoxicity with rabbit complement; assay type: cell-based; settings: 0.1-10 ug/ml, rabbit complement 1:4, 2 hours; compared to the rituximab obtained without any treatment
Procedure: Complement-Dependent Cytotoxicity (complementary dependent cell death): Ramos cells were treated with 5 uM of calcein-AM in a serum-free RPMI, and then incubated at 37° C. for 30 minutes. The stained Ramos cells were dispensed in an amount of 1×10^5 cells/well.

[8] = system: Ramos cells; assay: Binding affinity of rituximab to Ramos cells by flow cytometry; settings: 0.1-10 μg/ml, 4° C. 30 minutes, FACS; compared to the rituximab obtained without any treatment
Procedure: Then, incubation was performed at 4° C. for 30 minutes. Washing with PBS was performed once, and then treatment with anti-human Ig Fc-specific FITC-conjugated secondary antibody (109-095-008, 1:200 dilution; Jackson Laboratories), which was diluted […] with 50 μl PBS, was performed. Incubation was performed at 4° C. for 30 minutes. […] Analysis was performed with the FlowJo software (FIG. 14).

| binding of O-GalNAc to light chain residues of rituximab ([6]; LC-MS/MS, untreated rituximab has O-GalNAc on 7 light chain residues) | O-GalNAc bound to rituximab ([6]; biotinylated-Jacalin lectin blotting, same amount of rituximab) | Compound | O-GlcNAc in rituximab, metabolic labeling ([1]; 50 μM with Ac4GlcNAz 50 μM, 4 days, streptavidin-HRP) | O-GlcNAc in rituximab ([1]; 50 μM, 2 weeks at 30° C., RL2-HRP, reducing and non-reducing conditions) | degree of binding of O-GlcNAc in rituximab ([1]; rituximab of Example 1, RL2-HRP Western blotting, same amount of rituximab) | production of rituximab depending on treatment concentration ([2]; 0, 30 or 50 μM for 72 hours, Western blotting) | production of the purified rituximab antibody, increase versus no treatment ([2]; 30 μM, 30° C., 2 weeks, FIG. 1) | production of the heavy and light chains of rituximab over time ([2]; 30 μM, Western blotting) | production of the light chain of rituximab ([3]; 2 weeks) | production of rituximab ([3]; 7 days) | production of the light chain of pembrolizumab ([4]; 2 weeks) | production of pembrolizumab ([4]; 7 days) | production of the light chain of nivolumab ([5]; 2 weeks) | production of nivolumab ([5]; 7 days) | complement-dependent cytotoxicity [7] | binding affinity [8] |
| --- | --- | --- | --- | --- | --- | --- | --- | --- | --- | --- | --- | --- | --- | --- | --- | --- |
| decreased in 5 out of the 7 residues | decreased | CCN=C1N[C@@H]2[C@@H](O)[C@H](O)[C@@H](CO)O[C@@H]2S1 [Thiamet-G] | increased | increased | increased | increased proportionally | about 2 times | remarkably increased over time | increased remarkably by two or more times | increased remarkably | increased remarkably by two or more times | increased remarkably | increased remarkably by two or more times | increased remarkably | – | – |
| – | – | COc1ccccc1[C@@H](NS(=O)(=O)c1ccc2[nH]c(=O)ccc2c1)C(=O)N(Cc1ccco1)Cc1cccs1 [OSMI-1] | – | – | – | – | – | extent of increase in production decreased as compared with the untreated negative control | – | – | – | – | – | – | – | – |
| – | – | rituximab, which underwent O-linked glycosylation by treatment with Thiamet-G: rituximab (SEQ ID NO: 5 and 6) produced in CHO-K1 cells with Thiamet-G, O-GlcNAc bound to light chain serines 7, 12, 14, 181 | – | – | – | – | – | – | – | – | – | – | – | – | no difference | no difference |

From patent publication US12590164B2, “Productivity-enhanced antibody and method for producing same” (Yonsei University BioHealth Technology Holdings, Inc., priority 2018, dated 2026)
